Data reported in PMC8437142 (The Journal of physiology, 2021).

Legend:
opioid receptors = conditions: ref Lewis et al., 2010; Doyle & Murphy, 2018; cited from earlier work
[1] = Serum morphine and metabolites by UPLC-MS/MS after s.c. morphine; conditions: rat, sc, 4 mg/kg

Row | Compound | affinity for opioid receptors (opioid receptors) | concentration at 4.5 h [1] [ng/mL]
1 | CN1CC[C@]23c4c5ccc(O[C@@H]6O[C@H](C(=O)O)[C@@H](O)[C@H](O)[C@H]6O)c4O[C@H]2[C@@H](O)C=C[C@H]3[C@H]1C5 [Morphine-3-glucuronide, morphine-3-glucuronide] | no affinity | 
2 | CN1CC[C@]23c4c5ccc(O)c4O[C@H]2[C@@H](O[C@@H]2O[C@H](C(=O)O)[C@@H](O)[C@H](O)[C@H]2O)C=C[C@H]3[C@H]1C5 [Morphine-6-glucuronide, morphine-6-glucuronide] |  | < 1
